Reference: US9296708B2, “Chimeric small molecules for the recruitment of antibodies to cancer cells” (YALE UNIVERSITY, priority 2008, dated 2016)
Residues, ends and D or L forms follow the SMILES beside them.

Key:
Format in all cases: biochemical
rhPSMA [1] = target: T1, rhPSMA (Homo sapiens (Human), UniProt Q04609); assay: PSMA inhibition assay (NAAG hydrolysis, Amplex Red); settings: for IC50: mean of triplicate experiments ± SD
[2] = target: human recombinant PSMA (rhPSMA) (Homo sapiens (Human), UniProt Q04609); assay: NAALADase inhibition experiments (Amplex Red glutamate release); settings: human recombinant PSMA (R&D Research); average of three runs ± standard deviation
Sequence of human recombinant PSMA (rhPSMA) (Q04609 44-750 limits assumed): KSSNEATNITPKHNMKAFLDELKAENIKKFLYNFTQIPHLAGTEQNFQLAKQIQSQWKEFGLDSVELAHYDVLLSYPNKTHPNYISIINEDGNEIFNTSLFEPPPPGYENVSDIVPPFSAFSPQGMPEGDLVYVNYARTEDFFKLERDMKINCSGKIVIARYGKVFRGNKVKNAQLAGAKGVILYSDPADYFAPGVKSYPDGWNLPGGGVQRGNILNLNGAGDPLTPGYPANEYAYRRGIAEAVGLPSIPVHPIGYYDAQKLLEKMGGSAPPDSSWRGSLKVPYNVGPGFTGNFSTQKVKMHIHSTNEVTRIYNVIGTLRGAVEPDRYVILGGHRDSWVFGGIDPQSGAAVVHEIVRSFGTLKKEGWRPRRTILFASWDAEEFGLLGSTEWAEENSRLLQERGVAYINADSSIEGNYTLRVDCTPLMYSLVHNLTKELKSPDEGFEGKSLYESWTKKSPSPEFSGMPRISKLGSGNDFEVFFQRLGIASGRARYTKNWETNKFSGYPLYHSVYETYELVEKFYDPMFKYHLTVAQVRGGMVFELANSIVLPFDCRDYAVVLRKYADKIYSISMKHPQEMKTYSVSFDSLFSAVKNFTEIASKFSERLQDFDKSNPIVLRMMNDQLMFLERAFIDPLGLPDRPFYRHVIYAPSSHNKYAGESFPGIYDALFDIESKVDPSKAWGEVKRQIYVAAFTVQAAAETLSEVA
Description: A 10 mM stock solution of N-acetyl-aspartyl-glutamate (NAAG) in 40 mM NaOH was diluted to 40 μM in Tris buffer (0.1M Tris-HCl, pH=7.5), and was added to 384 well plate (25 μl per well). […] For IC50 measurements, solutions of recruiting molecule 3 in water (2 μL per well, dilution series) were added to wells. For all other wells, 2 μL of water was added. To initiate reactions, rhPSMA (R&D research) diluted in Tris buffer (20 pg/mL), was added to each well (25 μl per well). For negative controls, Tris buffer was added (25 μl per well). The plate was covered and incubated for 15 minutes, at which time the protein was deactivated by heating the plate to 95° C. for 3 minutes. After plate was allowed to cool, glutamic acid release was visualized using an Amplex®-Red glutamic acid/glutamate oxidase assay kit (Invitrogen). Km and IC50 values were calculated using graphpad prism software, and Ki was calculated from these values using the Cheng-Prusoff Equation. This process was run in triplicate, and is reported in the manuscript as the average of three runs±standard deviation.

rhPSMA [3] = target: T1, rhPSMA; assay: Measurement of PSMA Km; settings: NAAG substrate, 40 μM-312.5 nM, room temperature 15 min
Description: A 10 mM solution of N-acetyl-aspartylglutamate (NAAG) in 40 mM NaOH, and was then diluted in Reaction Buffer (100 mM Tris-HCl, pH 7.5) to a final NAAG concentration of 40 µM. The solution was added to a 384 well plate (20 µL per well). […] Reaction Buffer (20 µL) was added to the Km control series. The plate was incubated at room temperature for 15 min, and then heated to 95° C. for 3 minutes. The plate was allowed to cool to room temperature, and glutamic acid levels were measured using a commercially available Amplex®—Red Glutamic Acid/Glutamate Oxidase Assay Kit (Invitrogen). Fluorescence intensities were measured using a Synergy 2 multiwell plate reader (Biotek), fitted with excitation and emission filters of 545 nm and 590 nm, respectively. […] This value is consistent with that reported in the literature^7 and was employed in subsequent Ki calculations (see below).

[4] = Table 1, from IC50 and Km via Cheng-Prusoff equation
[5] = Table 2, Cheng-Prusoff equation, Km 925 nM

T1 sequence (Q04609 44-750): as the sequence (Q04609 44-750 limits assumed) above

Row | Structure (SMILES) | Ki (rhPSMA [1]; [5]) [nM] | IC50 (rhPSMA [1]; Table 2) [nM] | Ki (rhPSMA [1]; [4]) [nM] | IC50 (rhPSMA [1]; Table 1, 20 μM NAAG) [nM] | further results
1 | O=C(O)CC[C@H](NC(=O)N[C@@H](CCCCn1cc(CNc2ccc([N+](=O)[O-])cc2[N+](=O)[O-])nn1)C(=O)O)C(=O)O [1, ARM-P0, (S)-2-(3-((S)-1-carboxy-5-(4-((2,4-dinitrophenylamino)methyl)-1H-1,2,3-triazol-1-yl)pentyl)ureido)pentanedioic acid] | – | – | 0.078 ± 0.018 | 1.76 ± 0.41 | –
2 | COCCOCCOCc1cn(CCCC[C@H](NC(=O)N[C@@H](CCC(=O)O)C(=O)O)C(=O)O)nn1 [9, MeO-P2, (S)-2-(3-((S)-1-carboxy-5-(4-((2-(2-methoxyethoxy)ethoxy)methyl)-1H-1,2,3-triazol-1-yl)pentyl)ureido)pentanedioic acid] | – | – | 1.81 ± 0.42 | 40.8 ± 9.4 | –
3 | O=C(O)CC[C@H](NC(=O)N[C@@H](CCCCn1cc(COCCOCCOCCOCCOCCOCCOCCOCCOCCOCCOCCOCCNc2ccc([N+](=O)[O-])cc2[N+](=O)[O-])nn1)C(=O)O)C(=O)O [7, ARM-P12] | – | – | 1.65 ± 0.72 | 37.3 ± 16.2 | –
4 | COCc1cn(CCCC[C@H](NC(=O)N[C@@H](CCC(=O)O)C(=O)O)C(=O)O)nn1 [8, MeO-P0, (S)-2-(3-((S)-1-carboxy-5-(4-(methoxymethyl)-1H-1,2,3-triazol-1-yl)pentyl)ureido)pentanedioic acid] | – | – | 1.35 ± 0.54 | 30.5 ± 12.1 | –
5 | O=C(O)CC[C@H](NC(=O)N[C@@H](CCCCn1cc(COCCNc2ccc([N+](=O)[O-])cc2[N+](=O)[O-])nn1)C(=O)O)C(=O)O [2, ARM-P1, (S)-2-(3-((S)-1-carboxy-5-(4-((2-(2,4-dinitrophenylamino)ethoxy)methyl)-1H-1,2,3-triazol-1-yl)pentyl)ureido)pentanedioic acid] | – | – | 0.047 ± 0.005 | 1.05 ± 0.11 | –
6 | COCCOCCOCCOCCOCCOCCOCCOCCOCCOCCOCCOCCOCc1cn(CCCC[C@H](NC(=O)N[C@@H](CCC(=O)O)C(=O)O)C(=O)O)nn1 [12, MeO-P12, (S)-2-(3-((S)-5-(4-2,5,8,11,14,17,20,23,26,29,32,35,38-tridecaoxanonatriacontyl-1H-1,2,3-triazol-1-yl)-1-carboxypentyl)ureido)pentanedioic acid] | – | – | 7.3 ± 2.6 | 165 ± 58.9 | –
7 | COCCOCCOCCOCCOCCOCCOCCOCCOCc1cn(CCCC[C@H](NC(=O)N[C@@H](CCC(=O)O)C(=O)O)C(=O)O)nn1 [11, MeO-P8, (S)-2-(3-((S)-5-(4-2,5,8,11,14,17,20,23,26-nonaoxaheptacosyl-1H-1,2,3-triazol-1-yl)-1-carboxypentyl)ureido)pentanedioic acid] | – | – | 5.79 ± 2.54 | 131 ± 57.6 | –
8 | O=C(O)CC[C@H](NC(=O)N[C@@H](CCCCn1cc(COCCOCCOCCOCCOCCOCCNc2ccc([N+](=O)[O-])cc2[N+](=O)[O-])nn1)C(=O)O)C(=O)O [5, ARM-P6] | – | – | 0.101 ± 0.027 | 2.29 ± 0.6 | –
9 | CC(C)(C)OC(=O)CC[C@H](NC(=O)N[C@@H](CCCCn1cc(COCCOCCOCCOCCNc2ccc([N+](=O)[O-])cc2[N+](=O)[O-])nn1)C(=O)OC(C)(C)C)C(=O)OC(C)(C)C [PC-ARM (3), (S)-di-tert-butyl 2-(3-((S)-1-tert-butoxy-6-(4-(13-(2,4-dinitrophenylamino)-2,5,8,11-tetraoxamidecyl)-1H-1,2,3-triazol-1-yl)-1-oxohexan-2-yl)ureido)pentanedioate] | – | – | – | – | Ki [2]: 0.9 ± 0.3 nM
10 | CC(=O)N[C@@H](CC(=O)O)C(=O)N[C@@H](CCC(=O)O)C(=O)O [NAAG, N-acetyl-aspartylglutamate] (Ac-Asp-Glu-OH) | – | – | – | – | Km (rhPSMA [3]): 0.925 µM

More lines, main results first:

Row | Ki (rhPSMA [1]; [5]) [nM] | IC50 (rhPSMA [1]; Table 2) [nM] | Structure (SMILES) | Ki (rhPSMA [1]; [4]) [nM] | IC50 (rhPSMA [1]; Table 1, 20 μM NAAG) [nM] | further results
11 | 15.1 | 342 ± 170 | O=C(O)CC[C@H](NC(=O)N[C@@H](CCCCn1cc(COCCOCCNC2CCCCC2)nn1)C(=O)O)C(=O)O [Compound 17, (S)-2-(3-((S)-1-carboxy-5-(4-((2-(2-(cyclohexylamino)ethoxy)ethoxy)methyl)-1H-1,2,3-triazol-1-yl)pentyl)ureido)pentanedioic acid] | – | – | –
12 | 0.06 ± 0.008 | 1.36 ± 0.18 | O=C(O)CC[C@H](NC(=O)N[C@@H](CCCCn1cc(COCCOCCNc2ccc([N+](=O)[O-])cc2)nn1)C(=O)O)C(=O)O [Compound 14, (S)-2-(3((S)-1-carboxy-5-(4-((2-(2-(4-nitrophenylamino)ethoxy)ethoxy)methyl)-1H-1,2,3-triazol-1-yl)pentyl)ureido)pentanedioic acid] | – | – | Ki (rhPSMA [1]; Table 2 analogues): 0.078 nM
13 | 0.73 ± 0.28 | 16.6 ± 6.3 | O=C(O)CC[C@H](NC(=O)N[C@@H](CCCCn1cc(COCCOCCNc2ccccc2)nn1)C(=O)O)C(=O)O [Compound 15, (S)-2-(3-((S)-1-carboxy-5-(4-((2-(2-(phenylamino)ethoxy)ethoxy)methyl)-1H-1,2,3-triazol-1-yl)pentyl)ureido)pentanedioic acid] | – | – | Ki (rhPSMA [1]; Table 2 analogues): 0.73 nM
14 | 0.078 ± 0.007 | 1.78 ± 0.15 | O=C(O)CC[C@H](NC(=O)N[C@@H](CCCCn1cc(COCCOCCNc2ccccc2[N+](=O)[O-])nn1)C(=O)O)C(=O)O [Compound 13, (S)-2-(3-((S)-1-carboxy-5-(4-((2-(2-(2-nitrophenylamino)ethoxy)ethoxy)methyl)-1H-1,2,3-triazol-1-yl)pentyl)ureido)pentanedioic acid] | – | – | Ki (rhPSMA [1]; Table 2 analogues): 0.06 nM
15 | 0.97 | 21.9 ± 9.9 | COc1ccc(NCCOCCOCc2cn(CCCC[C@H](NC(=O)N[C@@H](CCC(=O)O)C(=O)O)C(=O)O)nn2)cc1 [Compound 16, (S)-2-(3-((S)-1-carboxy-5-(4-((2-(2-(4-methoxyphenylamino)ethoxy)ethoxy)methyl)-1H-1,2,3-triazol-1-yl)pentyl)ureido)pentanedioic acid] | – | – | Ki (rhPSMA [1]; Table 2 analogues): 0.97 nM
